Data on 25 molecules can be found in patent US4725597A, “Bis(piperazinyl or homopiperazinyl)alkanes” (Boehringer Ingelheim Ltd., priority 1984, dated 1988).

Structures can show the parent of a compound that is named as a salt. A value given as a limit tells only on which side of the number the result lay.

Assay type in all cases: cell-based
Assay [1] has as its system human leukocytes (basophils). The assay can be described thus: Inhibition of histamine release from human leukocytes (basophils), Procedure A. Particulars: Leukocyte, 1 h, rabbit anti-human IgE, 37° C., 60 minutes, (d) No response detected at highest dose indicated, read-out: In Vitro Inhibition of Histamine Release IC50, Procedure A. As for the experimental part: A. Procedure for Determining Inhibition of Histamine Release from Human Leukocytes (Basophils) 1. Separation of Leukocytes: A modification of the method of L. Lichtenstein and A. Osler, J. Exp. Med. 120, 507 (1964) is used. Heparinized human blood (80-100 ml) is mixed with 20 ml of saline (0.2%) containing 0.6 gm of dextrose and 1.2 gm dextran in propylene centrifuge tubes. The mixture is kept at ambient temperature for 60-90 minutes to allow the separation of erythrocytes from the platelet-leukocyte-rich supernate. The supernate is removed and centrifuged for 8 minutes at 110×g in cold. The leukocyte pellet is washed twice with Tris buffer and finally suspended in 150-180 ml Tris-ACM buffer at 1-2×10^6 cells/ml. 2. Reaction Mixture: The reaction is carried out in 12×75 mm plastic tubes at a total volume of […]. The reaction medium includes 0.05 ml rabbit anti-human IgE (the antigen), 0.2 ml of the test compound in water at concentrations ranging from 10-100 μM, and 0.1 ml of the leukocyte suspension. The reaction mixture is incubated in a 37° C. shaking water bath for 60 minutes. Upon completion of the reaction, the tubes are centrifuged and the supernatants collected. The protein is removed from the supernatants by precipitation with 0.2 ml of 8% perchloric acid. 3. Histamine Assay: Histamine release is measured by the automated fluorometric method of W. Siraganian and W. Hook in Chapter 102 of the Manual of Clinical Immunology, 2nd Edition, edited by R. Rose and H. Friedman, published by the American Society for Microbiology, Washington, D.C. 1980. Percent inhibition is calculated as follows: [formula] The concentration which causes a 50 percent inhibition (IC50) of histamine release is interpolated from a plot of percent inhibition versus logarithm of drug concentration.

Assay [2] deals with rat peritoneal mast cells. The assay can be described thus: Inhibition of histamine release from rat peritoneal mast cells, Procedure B. Particulars: Mast cell, 1 h, sheep anti-rat IgE or ovalbumin, 37° C., 60 minutes, (d) No response detected at highest dose indicated, read-out: In Vitro Inhibition of Histamine Release IC50, Procedure B. As for the experimental part:
B. Procedure for Determining Inhibition of Histamine Release from Rat Peritoneal Mast Cells 1. Harvest of Peritoneal Mast Cells: After the rats are sacrificed with ether, 20 ml of Minimum Essential Medium (MEM) containing 20 units/ml heparin is injected into the peritoneum. The abdomen is massaged for one minute and the lavage fluid collected. The peritoneal cells are centrifuged at 1800 rpm for 8 minutes in cold. After two washes with Tris A buffer, the cells are resuspended in Tris ACM buffer at 2-4×10^6 cells/ml. 2. Reaction Mixture: The reaction is carried out in 12×75 mm plastic tubes at a total volume of 1.25 ml. The reaction mixture includes 0.5 ml (10-1000 μg) sheep anti-rat IgE or ovalbumin, 0.2 ml of the test compound in water at concentrations ranging from 10-1000 μM, […] phosphatidylserine solution (20-60 μg to each tube), and 0.5 ml of cell suspension. The reaction mixture is incubated in a 37° C. shaking water bath for 60 minutes. Upon completion of the reaction, the tubes are centrifuged and the supernatants collected. The protein is removed from the supernatants by precipitation with 0.2 ml of 8% perchloric acid. 3. Histamine Assay: Histamine release is measured by the automated fluorometric method of Siraganian, supra. The concentration which causes a 50% inhibition (IC50) of histamine release is computed as in Part A.

In another assay the test system is guinea pig basophils. The assay can be described thus: Inhibition of histamine release from guinea pig basophils, Procedure C. Conditions: Cavia porcellus, 1 h, ovalbumin-sensitized, 37° C., 60 minutes, read-out: In Vitro Inhibition of Histamine Release IC50, Procedure C. The procedure:
C. Procedure for Determining Inhibition of Histamine Release from Guinea Pig Basophils 1. In Vivo Sensitization: Male Hartley guinea pigs (200-300 gms) are immunized on day 0 with two 0.05 ml intradermal injections of 200 μg ovalbumin. Sensitized basophils are available between days 13-25 post-sensitization. This mode of sensitization favors IgE response. 2. Separation of Leukocytes: The method of Lett-Brown et al., Int. Arch. Allergy, Appl. Immun. 64, 241 (1981) is used. Animals are anesthetized with ether and are bled via cardiac puncture with plastic syringes containing sufficient EDTA to provide a final concentration of 10 mM. One part of 3% gelatin in saline at 37° C. is mixed with two parts of blood in a 16×150 mm tube. The cells are allowed to sediment at a 30° angle for 45 minutes in a 37° C. water bath. The leukocyte-rich plasma is collected and centrifuged at 150×g for 30 minutes at room temperature. The pelleted cells are washed in Hepes-buffered saline (HG) containing 4 mM EDTA and resuspended in Hepes-buffered saline containing Mg^++ and Ca^++ (HGCM) at 4-5×10^6 cells/ml. 3. Reaction Mixture: The reaction is carried out in 12×75 mm plastic tubes and a total volume of 1.2 ml which includes 0.5 ml of antigen, 0.2 ml of drug solution at concentrations ranging from 10-1000 μM and 0.5 ml of prewashed cell suspension. The reaction mixture is incubated in a 37° C. shaking water bath for 60 minutes. Upon completion of the reaction, the tubes are centrifuged and the supernatants collected. The protein is removed from the supernatants by precipitation with 0.2 ml of 8% perchloric acid. 4. Histamine Assay: Histamine release is measured by the automated fluorometric method of Siraganian, supra. The concentration which causes a 50 percent inhibition of Histamine release is computed as in Part A.

A word on the IC50: it is the concentration needed to halve the response being measured. As for `OC(CN1CCN(CCCN2CCN(Cc3ccc(Cl)cc3)CC2)CC1)c1ccccc1` (stereo not shown) [Example 11, 1-[4-(4-Chlorobenzyl)-1-piperazinyl]-3-[4-(2-hydroxy-2-phenylethyl)-1-piperazinyl]propane tetrahydrochloride], the IC50 in assay [1] was found to be 20 µM.

As to `CC(=O)Oc1ccc(CN2CCN(CCCN3CCN(Cc4ccc(OC(C)=O)cc4)CC3)CC2)cc1` [Example 30, 1,3-Bis[4-(4-acetoxybenzyl)-1-piperazinyl]propane], in assay [1], the half-inhibitory concentration (IC50) was over 1000 µM. Consider `Clc1ccccc1CN1CCN(CCCN2CCN(Cc3ccccc3Cl)CC2)CC1` [Example 21, 1,3-Bis[4-(2-chlorobenzyl)-1-piperazinyl]propane tetrahydrochloride], for which the IC50 in assay [1] was 14 µM. The same measure, in the same setting: under `Clc1ccc(CCCCN2CCN(CCCN3CCN(CCCCc4ccc(Cl)cc4)CC3)CC2)cc1` [Example 29, 1,3-Bis[4-(4-{4-chlorophenyl}butyl)-1-piperazinyl]propane tetrahydrochloride] stands 2 µM; under `O=C(CCN1CCN(Cc2ccc(Cl)cc2)CC1)N1CCN(Cc2ccc(Cl)cc2)CC1` [Example 6, 1,3-Bis[4-(4-chloro-benzyl)-1-piperazinyl]-1-oxo-propane trihydrochloride], 12 µM. For `Clc1ccc(CN2CCN(CCCN3CCN(Cc4ccc(Cl)cc4)CC3)CC2)cc1` [Example 1, 1,3-Bis[4-(4-chlorobenzyl)-1-piperazinyl]propane tetrahydrochloride], the IC50 in assay [2] is 2 µM; in assay [1] it was 11 µM; in the assay with guinea pig basophils, 35 µM.

As to `Clc1ccc(CCN2CCN(CCCN3CCN(CCc4ccc(Cl)cc4)CC3)CC2)cc1` [Example 16, 1,3-Bis[4-(4-chlorophenethyl)-1-piperazinyl]propane], the IC50 in assay [2] was over 100 µM; in assay [1], 3 µM; in the assay with guinea pig basophils, 12 µM. In the case of `O=C(CN1CCN(CCCN2CCN(CC(=O)c3ccccc3)CC2)CC1)c1ccccc1` [Example 12, 1,3-Bis(4-phenacyl-1-piperazinyl)propane tetrahydrochloride monohydrate], the half-maximal inhibitory concentration (IC50) in assay [1] is 800 µM. Regarding `Fc1ccc(CN2CCN(CCCN3CCN(Cc4ccc(F)cc4)CC3)CC2)cc1` [Example 5, 1,3-Bis[4-(4-fluorobenzyl)-1-piperazinyl]propane tetrahydrochloride], the IC50 in assay [1] came to 45 µM; with guinea pig basophils, 760 µM.

On to `O=C(CN1CCN(CCCN2CCN(Cc3ccc(Cl)cc3)CC2)CC1)c1ccccc1` [Example 10, 1-[4-(4-Chlorobenzyl)-1-piperazinyl]-3-(4-phenacyl-1-piperazinyl)propane tetrahydrochloride monohydrate], for which the IC50 in assay [1] was 3 µM. As to `Clc1ccc(C(c2ccccc2)N2CCN(CCCN3CCN(C(c4ccccc4)c4ccc(Cl)cc4)CC3)CC2)cc1` (stereo not shown) [Example 8, 1,3-Bis[4-(4-chlorobenzhydryl)-1-piperazinyl]-propane dihydrochloride dihydrate], the values for the IC50 in assay [2] and in assay [1] were over 100 µM and over 1000 µM, respectively. For the molecule `c1ccc(CCN2CCN(CCCN3CCN(CCc4ccccc4)CC3)CC2)cc1` [Example 14, 1,3-Bis(4-phenethyl-1-piperazinyl)propane dihydrochloride dihydrate], in assay [1], the half-maximal inhibitory concentration (IC50) was 28 µM.

On to `CC1C(C)N(Cc2ccc(Cl)cc2)C(C)C(C)N1CCCN1C(C)C(C)N(Cc2ccc(Cl)cc2)C(C)C1C` (stereo not shown) [Example 32, 1,3-bis[4-(4-chlorobenzyl)-2,3,5,6-tetramethyl-1-piperazinyl]propane tetrahydrochloride], for which the half-inhibitory concentration (IC50) in assay [1] came out at 1000 µM. Still for that read-out and setting: under `Brc1ccc(CN2CCN(CCCN3CCN(Cc4ccc(Br)cc4)CC3)CC2)cc1` [Example 27, 1,3-Bis[4-(4-bromobenzyl)-1-piperazinyl]propane tetrahydrochloride] stands 3 µM; under `Oc1ccc(CN2CCN(CCCN3CCN(Cc4ccc(O)cc4)CC3)CC2)cc1` [Example 26, 1,3-Bis[4-(4-hydroxybenzyl)-1-piperazinyl]propane], over 1000 µM; under `Clc1ccc(CN2CCN(CCCN3CCN(Cc4ccc(Cl)c(Cl)c4)CC3)CC2)cc1Cl` [Example 20, 1,3-Bis[4-(3,4-dichlorobenzyl)-1-piperazinyl]-propane tetrahydrochloride], 3 µM. On the same count and under the same terms, the same measure for `Cc1ccc(CN2CCN(CCCN3CCN(Cc4ccc(C)cc4)CC3)CC2)cc1` [Example 22, 1,3-Bis[4-(4-methylbenzyl)-1-piperazinyl]-propane tetrahydrochloride]: 20 µM; for `OC(CN1CCN(CCCN2CCN(CC(O)c3ccccc3)CC2)CC1)c1ccccc1` (stereo not shown) [Example 13, 1,3-Bis[4-(2-phenyl-2-hydroxyethyl)-1-piperazinyl]propane tetrahydrochloride]: about 1000 µM.

As for `CC(c1ccccc1)N1CCN(CCCN2CCN(C(C)c3ccccc3)CC2)CC1` (stereo not shown) [Example 17, 1,3-Bis[4-(1-phenylethyl)-1-piperazinyl]-propane tetrahydrochloride], in assay [1], the IC50 worked out at 80 µM. `CCCCOc1ccc(CN2CCN(CCCN3CCN(Cc4ccc(OCCCC)cc4)CC3)CC2)cc1` [Example 31, 1,3-Bis[4-(4-butoxybenzyl)-1-piperazinyl]propane tetrahydrochloride]: the concentration for half-maximal inhibition (IC50) in assay [1] amounted to 4 µM.

With `CC(CCN1CCN(Cc2ccc(Cl)cc2)CC1)N1CCN(Cc2ccc(Cl)cc2)CC1` (stereo not shown) [Example 7, 1,3-Bis[4-(4-chlorobenzyl)-1-piperazinyl]-1-methylpropane tetrahydrochloride hemihydrate], the IC50 in assay [1] is 4 µM.

On to `Clc1ccc(CN2CCN(CCCCN3CCN(Cc4ccc(Cl)cc4)CC3)CC2)cc1` [Example 3, 1,4-Bis[4-(4-chlorobenzyl)-1-piperazinyl]butane hemihydrate], for which the half-maximal inhibitory concentration (IC50) in assay [1] turned out to be 24 µM. With `Clc1cccc(CN2CCN(CCCN3CCN(Cc4cccc(Cl)c4)CC3)CC2)c1` [Example 23, 1,3-Bis[4-(3-chlorobenzyl)-1-piperazinyl]propane dihydrochloride monohydrate], the concentration for half-maximal inhibition (IC50) in assay [1] is 14 µM.

Consider `c1ccc(CN2CCN(CCCN3CCN(Cc4ccccc4)CC3)CC2)cc1` [Example 4, 1,3-Bis(4-benzyl-1-piperazinyl)propane tetrahydrochloride], for which the IC50 in assay [1] stood at 53 µM.

Turning to `FC(F)(F)c1cc(CN2CCN(CCCN3CCN(Cc4ccc(Cl)c(C(F)(F)F)c4)CC3)CC2)ccc1Cl` [Example 25, 1,3-Bis[4-(4-chloro-3-trifluoromethylbenzyl)-1-piperazinyl]propane tetrahydrochloride], the IC50 in assay [1] amounted to 6 µM.
